What all share (type): biochemical
In one assay the target is PDE1C (Homo sapiens, UniProt Q14123). As to the kind of experiment: PDE1 inhibition assay (SPA), PDE1C. Particulars: for IC50: concentration required to reach 50% inhibition of the enzyme, 15 nM tritium labelled cAMP, read-out: PDE1C inhibition (nM or %): IC50. In short, it runs like this:
(§1)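 A scintillation proximity assay used enzyme sufficient for 20–25% substrate conversion and 15 nM tritiated cAMP in 50 mM HEPES pH 7.6, 10 mM MgCl2, 0.02% Tween20 and 0.1 mg/ml BSA, run for 1 h at room temperature. Reactions were stopped with yttrium silicate SPA beads. IC50 values were derived from activity relative to uninhibited control.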

Another assay deals with PDE1B (Homo sapiens, UniProt Q01064). Description: PDE1 inhibition assay (SPA), PDE1B. Particulars: for IC50: concentration required to reach 50% inhibition of the enzyme, 15 nM tritium labelled cAMP, read-out: PDE1B inhibition (nM or %): IC50; for inhibition at 10 µM: 1 h, % inhibition of the enzyme at a concentration of 10 micro molar of the compound, read-out: PDE1B inhibition (nM or %): % inhib. In short, it runs like this: as §1
Chain of PDE1B (Q01064 whole entry): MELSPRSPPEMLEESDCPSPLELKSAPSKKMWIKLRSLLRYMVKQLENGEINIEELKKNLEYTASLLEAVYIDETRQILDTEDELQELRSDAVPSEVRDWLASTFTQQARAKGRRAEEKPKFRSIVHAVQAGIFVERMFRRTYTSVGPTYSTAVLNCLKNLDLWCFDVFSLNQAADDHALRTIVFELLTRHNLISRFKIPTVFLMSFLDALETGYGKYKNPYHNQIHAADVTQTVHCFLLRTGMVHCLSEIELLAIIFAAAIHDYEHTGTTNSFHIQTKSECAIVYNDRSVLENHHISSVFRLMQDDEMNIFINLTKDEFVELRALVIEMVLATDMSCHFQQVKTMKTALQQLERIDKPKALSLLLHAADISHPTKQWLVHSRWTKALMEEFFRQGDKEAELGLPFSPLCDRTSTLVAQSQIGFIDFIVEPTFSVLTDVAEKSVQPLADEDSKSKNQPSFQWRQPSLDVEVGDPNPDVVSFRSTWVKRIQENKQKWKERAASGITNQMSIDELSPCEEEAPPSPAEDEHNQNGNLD

In a further assay the target is PDE1A (Homo sapiens, UniProt P54750). As to the kind of experiment: PDE1 inhibition assay (SPA), PDE1A. Particulars: for IC50: concentration required to reach 50% inhibition of the enzyme, 15 nM tritium labelled cAMP, read-out: PDE1A inhibition (nM or %): IC50; for inhibition at 10 µM: 1 h, % inhibition of the enzyme at a concentration of 10 micro molar of the compound, read-out: PDE1A inhibition (nM or %): % inhib. In short, it runs like this: as §1
Chain of PDE1A (P54750 whole entry): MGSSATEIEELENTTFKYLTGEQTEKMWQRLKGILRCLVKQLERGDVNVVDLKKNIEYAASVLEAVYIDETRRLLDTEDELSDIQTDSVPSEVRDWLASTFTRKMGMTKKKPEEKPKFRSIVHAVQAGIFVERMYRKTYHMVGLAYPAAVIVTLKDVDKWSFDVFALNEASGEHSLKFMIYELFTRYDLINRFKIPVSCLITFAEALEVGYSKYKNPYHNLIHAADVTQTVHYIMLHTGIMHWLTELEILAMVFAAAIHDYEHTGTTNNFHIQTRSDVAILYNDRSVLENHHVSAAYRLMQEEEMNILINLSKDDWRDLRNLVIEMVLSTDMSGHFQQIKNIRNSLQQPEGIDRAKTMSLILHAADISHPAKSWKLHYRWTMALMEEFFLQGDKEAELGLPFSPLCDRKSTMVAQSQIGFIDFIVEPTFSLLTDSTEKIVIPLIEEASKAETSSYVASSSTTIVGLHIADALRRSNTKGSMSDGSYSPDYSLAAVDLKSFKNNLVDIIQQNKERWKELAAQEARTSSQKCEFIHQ

Chain of PDE1C (Q14123 whole entry): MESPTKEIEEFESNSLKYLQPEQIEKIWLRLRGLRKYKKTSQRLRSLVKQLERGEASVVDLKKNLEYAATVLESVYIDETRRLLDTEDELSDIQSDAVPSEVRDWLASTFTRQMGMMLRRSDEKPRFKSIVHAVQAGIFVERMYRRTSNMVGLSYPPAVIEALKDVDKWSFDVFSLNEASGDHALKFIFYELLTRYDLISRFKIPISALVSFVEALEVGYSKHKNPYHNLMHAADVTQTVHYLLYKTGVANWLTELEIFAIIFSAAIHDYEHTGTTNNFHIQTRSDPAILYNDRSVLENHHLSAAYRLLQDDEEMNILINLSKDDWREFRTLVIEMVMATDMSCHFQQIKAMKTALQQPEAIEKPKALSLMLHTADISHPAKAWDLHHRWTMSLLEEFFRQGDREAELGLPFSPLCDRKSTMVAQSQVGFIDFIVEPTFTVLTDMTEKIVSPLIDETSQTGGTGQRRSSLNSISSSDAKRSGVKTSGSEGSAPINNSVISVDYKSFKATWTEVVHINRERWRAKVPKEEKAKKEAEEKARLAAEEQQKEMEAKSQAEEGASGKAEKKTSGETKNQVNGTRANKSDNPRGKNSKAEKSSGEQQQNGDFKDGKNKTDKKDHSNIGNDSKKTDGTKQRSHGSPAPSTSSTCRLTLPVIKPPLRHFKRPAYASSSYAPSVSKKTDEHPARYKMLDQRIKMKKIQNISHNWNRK

On to `O=c1c2nnc(C3CCOCC3)n2cc(Cc2cccc(F)c2)n1CC1CCCCC1` [7-(cyclohexylmethyl)-6-(3-fluorobenzyl)-3-(tetrahydro-2H-pyran-4-yl)-[1,2,4]triazolo[4,3-a]pyrazin-8(7H)-one], for which the IC50 at PDE1C was 6 nM; at PDE1B, 22 nM; on PDE1A, 24 nM.

As for `Cc1cccc(Cc2cn3c(C4CCOCC4)nnc3c(=O)n2CC2CCCCC2)c1` [7-(cyclohexylmethyl)-6-(3-methylbenzyl)-3-(tetrahydro-2H-pyran-4-yl)-[1,2,4]triazolo[4,3-a]pyrazin-8(7H)-one], the 50% inhibitory concentration (IC50) at PDE1C was 1 nM; at PDE1B, 3 nM; on PDE1A, 2 nM.

On to `O=c1c2nnc(C3CCOCC3)n2cc(Cc2ccc(F)cc2)n1CC1CCCCC1` [7-(cyclohexylmethyl)-6-(4-fluorobenzyl)-3-(tetrahydro-2H-pyran-4-yl)-[1,2,4]triazolo[4,3-a]pyrazin-8(7H)-one], for which the values for the IC50 on PDE1C, on PDE1B and on PDE1A were 6 nM, 17 nM and 12 nM, respectively.

Turning to `Cc1ccc(Cc2cn3c(C4CCOCC4)nnc3c(=O)n2CC2CCCCC2)cc1` [7-(cyclohexylmethyl)-6-(4-methylbenzyl)-3-(tetrahydro-2H-pyran-4-yl)-[1,2,4]triazolo[4,3-a]pyrazin-8(7H)-one], the figures for the IC50 on PDE1C, on PDE1B and at PDE1A were 1 nM, 2 nM and 1 nM, respectively.

`Cc1ccccc1Cc1cn2c(C3CCOCC3)nnc2c(=O)n1CC1CCCC1` [7-(cyclopentylmethyl)-6-(2-methylbenzyl)-3-(tetrahydro-2H-pyran-4-yl)-[1,2,4]triazolo[4,3-a]pyrazin-8(7H)-one]: the IC50 at PDE1C was found to be 23 nM; at PDE1B, 260 nM; at PDE1A it was 251 nM.

As for `O=c1c2nnc(C3CCOCC3)n2cc(Cc2cccc(F)c2)n1CC1CCCC1` [7-(cyclopentylmethyl)-6-(3-fluorobenzyl)-3-(tetrahydro-2H-pyran-4-yl)-[1,2,4]triazolo[4,3-a]pyrazin-8(7H)-one], the half-maximal inhibitory concentration (IC50) on PDE1C came out at 27 nM; on PDE1B it was 220 nM; on PDE1A it was 369 nM.

Take `Cc1cccc(Cc2cn3c(C4CCOCC4)nnc3c(=O)n2CC2CCCC2)c1` [7-(cyclopentylmethyl)-6-(3-methylbenzyl)-3-(tetrahydro-2H-pyran-4-yl)-[1,2,4]triazolo[4,3-a]pyrazin-8(7H)-one]: the IC50 came out at 4 nM at PDE1C, 37 nM at PDE1B and 17 nM on PDE1A.

In the case of `O=c1c2nnc(C3CCOCC3)n2cc(Cc2ccc(F)cc2)n1CC1CCCC1` [7-(cyclopentylmethyl)-6-(4-fluorobenzyl)-3-(tetrahydro-2H-pyran-4-yl)-[1,2,4]triazolo[4,3-a]pyrazin-8(7H)-one], the half-inhibitory concentration (IC50) on PDE1C stood at 12 nM; at PDE1B, 140 nM; on PDE1A, 142 nM.

On to `Cc1ccc(Cc2cn3c(C4CCOCC4)nnc3c(=O)n2CC2CCCC2)cc1` [7-(cyclopentylmethyl)-6-(4-methylbenzyl)-3-(tetrahydro-2H-pyran-4-yl)-[1,2,4]triazolo[4,3-a]pyrazin-8(7H)-one], for which the values for the IC50 on PDE1C, at PDE1B and at PDE1A were 3 nM, 19 nM and 21 nM, respectively.

With `CCCc1nnc2c(=O)n(Cc3ccccc3)ccn12` [7-Benzyl-3-propyl-[1,2,4]triazolo[4,3-a]pyrazin-8(7H)-one], the IC50 at PDE1C was determined as 110 nM; on PDE1B it was 400 nM; on PDE1A, 770 nM.

With `CCCc1nnc2c(=O)n(CC)ccn12` [7-Ethyl-3-propyl-[1,2,4]triazolo[4,3-a]pyrazin-8(7H)-one], on PDE1C (% inhibition of the enzyme at a concentration of 10 micro molar of the compound), the “PDE1C inhibition (nM or %): % inhib” value is 52%. Further, the values for the inhibition at 10 µM at PDE1B and at PDE1A were 71% and 49%, respectively.

Turning to `CCCCCCn1ccn2c(C3CCOCC3)nnc2c1=O` [7-Hexyl-3-(tetrahydro-2H-pyran-4-yl)-[1,2,4]triazolo[4,3-a]pyrazin-8(7H)-one], the IC50 at PDE1C stood at 1100 nM; at PDE1B, 1000 nM; on PDE1A, 1260 nM.

Consider `CCCc1nnc2c(=O)n(CC(C)C)ccn12` [7-Isobutyl-3-propyl-[1,2,4]triazolo[4,3-a]pyrazin-8(7H)-one], for which the IC50 at PDE1C turned out to be 970 nM; at PDE1B, 2700 nM; at PDE1A it was 3300 nM.

In the case of `CC(C)CCn1ccn2c(C3CCOCC3)nnc2c1=O` [7-isopentyl-3-(tetrahydro-2H-pyran-4-yl)-[1,2,4]triazolo[4,3-a]pyrazin-8(7H)-one], on PDE1C, the half-maximal inhibitory concentration (IC50) came out at 1100 nM. Besides, the inhibition at 10 µM at PDE1B was 55%; on PDE1A, 47%.

As a reminder, the IC50 is the concentration that gives 50% inhibition. One may read the inhibition as how much of the control response was suppressed.

The values are drawn from patent US10150771B2, “Triazolopyrazinones as PDE1 inhibitors” (H. Lundbeck A/S, priority 2014, dated 2018).
